Three molecules from patent US20210106569A1, “OMIDENEPAG COMBINATION” (priority 2017, published 2021) can be followed below.

Assay [1] relates to normal pressure monkeys. Description: Intraocular pressure lowering, concomitant administration of omidenepag isopropyl and netarsudil (Example 2). The settings on record: male cynomolgus monkeys, average of 8, eye drop 20 μL: omidenepag isopropyl 0.0006 w/v%, netarsudil 0.01 w/v% (dimesylate). In kind it is in vivo, cynomolgus monkey. The procedure:
In order to examine usefulness of the combination of omidenepag or an ester thereof or a salt thereof and netarsudil, the effect of lowering an intraocular pressure when omidenepag isopropyl and netarsudil were administered concomitantly to experimental animals (normal pressure monkeys) was investigated.
(1) Preparation of Base of Omidenepag Isopropyl Solution • (Preparation of Compound Solution to be Tested) […]
(2) Preparation of Omidenepag Isopropyl Solution
(§1) To purified water were added omidenepag isopropyl, polyoxyl 35 castor oil, glycerin, sodium citrate, sodium edetate and benzalkonium chloride to dissolve them, and after adjusting pH, purified water was added to adjust the whole amount to prepare a 0.0006 w/v% omidenepag isopropyl solution.
(3) Preparation of Netarsudil Solution
Dimesylate of netarsudil was dissolved in a physiological saline solution containing a solubilizing agent, and then, a netarsudil solution having a desired concentration was prepared by using a commonly used method.
An effect of lowering an intraocular pressure when omidenepag isopropyl and netarsudil were administered concomitantly was investigated. As a comparative subject, an effect of lowering an intraocular pressure when omidenepag isopropyl or netarsudil was administered alone was also investigated. As a control, the base of the omidenepag isopropyl solution and the base of the netarsudil solution were administered.
Omidenepag isopropyl solution: 0.0006w/v% omidenepag isopropyl solution (volume of eye dropped: 20 μL)
Netarsudil solution: 0.01 w/v% netarsudil solution (volume of eye dropped: 20 μL)
Experimental animal: cynomolgus monkey (sex: male, 8 monkeys per a group)
[1] Contamitant Administration of Omidenepag Isopropyl and Netarsudil
(§2) (1) A drop of 0.4% oxybuprocaine hydrochloride eye drop (trade name: Benoxil (Registered Trademark) eye drops 0.4%) was applied to one eye of an experimental animal and local anesthesia was conducted.
(§3) (2) Immediately before administration of a compound solution to be tested, an intraocular pressure was measured and the value was made an initial intraocular pressure.
(3) The omidenepag isopropyl solution was applied to one eye of the experimental animal (the contralateral eye was untreated). After a short time (after about 5 minutes), the netarsudil solution was applied to the same eye.
(4) After 2 hours, 4 hours, 6 hours, 8 hours and 24 hours from applying the omidenepag isopropyl solution to the eye, one drop of 0.4% oxybuprocaine hydrochloride eye drop was applied to the eye to be measured for the intraocular pressure respectively, and after local anesthesia, the intraocular pressure was measured. Also, the intraocular pressure was measured each three times, and the average value was shown in the results. […]
The test was carried out in the same manner as the above-mentioned concomitant administration test except for changing the omidenepag isopropyl solution to the base of the omidenepag isopropyl solution. […]
The changes in the intraocular pressure values are shown by an average value±SEM of the difference from the value (0 hour) before administration of eight monkeys in each group with regard to each measurement time point of each individual. Here, the significance was evaluated by the Dunnett-Hsu test, and the significance level with respect to the control group was shown as *: p<0.05, **: p<0.01, and ***: p<0.001, the significance level with respect to the omidenepag isopropyl administered group was shown as †: p<0.05, ††: p<0.01, and †††: p<0.001, and the significance level with respect to the netarsudil administered group was shown as ♯♯: p<0.01, and ♯♯♯p<0.001.

Assay [2] concerns normal pressure monkeys. Description: Intraocular pressure lowering, concomitant administration of omidenepag isopropyl and ripasudil (Example 1). It counts as in vivo, cynomolgus monkey. The settings on record: male cynomolgus monkeys, average of 7, eye drop 20 μL: omidenepag isopropyl 0.0006 w/v%, ripasudil eye drops 0.4%. The procedure: In order to examine usefulness of the combination of omidenepag or an ester thereof or a salt thereof and ripasudil, the effect of lowering an intraocular pressure when omidenepag isopropyl and ripasudil were administered concomitantly to experimental animals (normal pressure monkeys) was investigated.
To purified water were added polyoxyl 35 castor oil, glycerin, sodium citrate, sodium edetate and benzalkonium chloride to dissolve them, and after adjusting pH, purified water was added to adjust the whole amount.
as §1
Commercially available physiological saline solution (trade name: Otsuka Normal Saline, obtained from Otsuka Pharmaceutical Factory, Inc.) was used as it was.
Commercially available ripasudil eye drop was used as it was.
An effect of lowering an intraocular pressure when omidenepag isopropyl and ripasudil were administered concomitantly was investigated. As a comparative subject, an effect of lowering an intraocular pressure when omidenepag isopropyl or ripasudil was administered alone was also investigated. As a control, the base and the physiological saline solution were administered.
Omidenepag isopropyl solution: 0.0006w/v% omidenepag isopropyl solution (volume of eye dropped: 20 μL) Ripasudil solution: ripasudil eye drop (trade name: Glanatec (Registered Trademark) eye drops 0.4%, volume of eye dropped: 20 μL)
Experimental animal: cynomolgus monkey (sex: male, 7 monkeys per a group)
[1] Concomitant Administration of Omidenepag Isopropyl and Ripasudil
as §2, §3
(3) The omidenepag isopropyl solution was applied to one eye of the experimental animal (the contralateral eye was untreated). After a short time (after about 5 minutes), the ripasudil solution was applied to the same eye.
(4) After 2 hours, 4 hours, 6 hours, 8 hours and 24 hours from applying the omidenepag isopropyl solution to the eye, one drop of 0.4% oxybuprocaine hydrochloride eye drop was applied to the eye to be measured for the intraocular pressure respectively, and after local anesthesia, the intraocular pressure was measured. Also, the intraocular pressure was measured each three times, and the average value was shown in the results.
[2] Single Administration of Omidenepag Isopropyl
The test was carried out in the same manner as the above-mentioned concomitant administration test except for changing the ripasudil solution to the physiological saline solution.
[3] Single Administration of Ripasudil
The test was carried out in the same manner as the above-mentioned concomitant administration test except for changing the omidenepag isopropyl solution to the base.
The test was carried out in the same manner as the above-mentioned concomitant administration test except for changing the omidenepag isopropyl solution to the base and changing the ripasudil solution to the physiological saline solution.
The changes in the intraocular pressure values are shown by an average value±SEM of the difference from the value (0 hour) before administration of seven monkeys in each group with regard to each measurement time point of each individual. […]

On to `Cc1ccc(C(=O)OCc2ccc([C@@H](CN)C(=O)Nc3ccc4cnccc4c3)cc2)c(C)c1` [Netarsudil, [4-[(1S)-1-(aminomethyl)-2-(isoquinolin-6-ylamino)-2-oxoethyl]phenyl]methyl 2,4-dimethylbenzoate], for which the “change in intraocular pressure value (difference from value before administration)” value is reported as −1.5 with normal pressure monkeys [1] (2 hours after dropping); −2.3 in the assay with normal pressure monkeys [1] (4 hours after dropping); −3.0 with normal pressure monkeys [1] (6 hours after dropping); −3.0 in the assay on normal pressure monkeys [1] (8 hours after dropping); −0.8 with normal pressure monkeys [1] (24 hours after dropping).

For the molecule `C[C@H]1CNCCCN1S(=O)(=O)c1cccc2cncc(F)c12` [Ripasudil, (S)-(-)-1-(4-fluoro-5-isoquinolinesulfonyl) 2-methyl-1,4-homopiperazine], the “change in intraocular pressure value (difference from value before administration)” value in the assay on normal pressure monkeys [2] (2 hours after dropping) is −2.7; in the assay on normal pressure monkeys [2] (4 hours after dropping), −1.6; in the assay with normal pressure monkeys [2] (6 hours after dropping), −1.6; in the assay with normal pressure monkeys [2] (8 hours after dropping), −0.8; in the assay with normal pressure monkeys [2] (24 hours after dropping), 0.0.

Take `CC(C)OC(=O)CNc1cccc(CN(Cc2ccc(-n3cccn3)cc2)S(=O)(=O)c2cccnc2)n1` [Omidenepag isopropyl, isopropyl (6-{[4-(pyrazol-1-yl)benzyl](pyridin-3-ylsulfonyl)aminomethyl}pyridin-2-ylamino)acetate]: the “change in intraocular pressure value (difference from value before administration)” value is 0.0 in the assay with normal pressure monkeys [2] (2 hours after dropping); −1.2 in the assay on normal pressure monkeys [2] (4 hours after dropping); −0.7 in the assay on normal pressure monkeys [2] (6 hours after dropping); −0.6 with normal pressure monkeys [2] (8 hours after dropping); −0.1 in the assay on normal pressure monkeys [2] (24 hours after dropping); −0.9 in the assay on normal pressure monkeys [1] (2 hours after dropping). Besides, the “change in intraocular pressure value (difference from value before administration)” value with normal pressure monkeys [1] (4 hours after dropping) is −2.5; in the assay with normal pressure monkeys [1] (6 hours after dropping) it was −2.5; in the assay with normal pressure monkeys [1] (8 hours after dropping) it was −2.3; with normal pressure monkeys [1] (24 hours after dropping), −0.3.
